Test results reported in US4910193A, “Treatment of gastrointestinal disorders” (Sandoz Ltd., priority 1987, dated 1990).
Counter-ions that a name gives are not always drawn. Like-named read-outs stand apart in the source and are kept apart here.

Tests used:
[1] = Properties of salt forms (solubility, stability); assay type: physicochemical; conditions: in words
dopamine binding sites [2] = conditions: tritiated haloperidol; read-out: IC50 dopamine sites (literature); cited from earlier work
dopamine = conditions: in words; comparison drug; cited from earlier work
[3] = test system: gastrointestinal motility induced by 5-hydroxytryptophan (5-HTP); assay: Test C: inhibition of increase in gastrointestinal motility induced by 5-HTP; assay type: in vivo, mouse (male NMRI); conditions: Mus musculus, ip; inhibition of 5-HTP induced motility
Method: In a further test the inhibition of the compounds of the invention in inhibiting the increase in gastrointestinal motility induced by 5-hydroxytryptophan (5-HTP) was observed.
Male NMRI mice (18-32 g in weight) are deprived of food 20 hours before the test. Water is not limited. The animals are separated by a barrier from their straw and access to feces. At the beginning of the test the animals are separated in individual single cages and water is removed.
All animals were treated with the test compound or saline. I.p. administration was used. Injection volume was 0.1 ml/10 g. 30 minutes after pre-treatment 5-HTP or saline was administered. Injection volume 0.1 ml/10 g. Dose 3 mg/kg. At the same time charcoal was administered perorally (10% suspension in water; 0.1 ml/10 g). 45 minutes after the start of the experiment the animals were killed. The intestines from the stomach to the rectum were examined. For each animal the transit distance of the front of the charcoal mean along the intestine was measured. The distance was ascertained as a percentage of the whole intestinal length. Groups of at least 3 animals were used.

[4] = test system: high affinity 5-HT receptor; assay: Isolated longitudinal muscle of guinea pig ileum, 5-HT contraction, high affinity receptor
Source text: The isolated longitudinal muscle of the guinea pig ileum with its adhering myenteric plexus is a well established model which permits investigation of the mechanism of action of various neurotransmitters.
Male guinea pigs (200-400 g) were killed by a blow on the head and exsanguineated. A length of small intestine was removed about 2 cm from the ileo-caecal valve. The mesentery was carefully removed and the ileum was stretched over a glass rod. By stroking tangentially away from the mesenteric attachement with a wad of cotton wool, the longitudinal muscle layer was separated and stripped from the unterlying circular muscle. Longitudinal muscle strips, 3-4 cm length, were mounted in a 10 ml organ bath containing Tyrode solution at 37° C. and bubbled with 5% carbon dioxide in oxygen. The Tyrode solution was of the following composition (mmol/l): NaCl, 137.0; CaCl2, 1.8; KCl, 2.7; MgCl2, 1.05; NaHCO3, 11.9; NaH2 PO4, 0.4; glucose, 5.6. The strips were placed under a resting tension of 500 mg. Contractions were recorded with an isotonic pendulum lever. […]
Each concentration was left in contact with the tissue for 1 min. […] Inhibition constants were expressed in the form of pA2 values which were graphically determined according to conventional methods (Arunlakshana and Schild, 1959. McKay 1978). […]

[5] = biological target: T1, low affinity 5-HT receptor (Cavia porcellus, UniProt O70212); assay: Isolated longitudinal muscle of guinea pig ileum, 5-HT contraction, low affinity receptor; conditions: read-out: pA2 (converted)
T1 construct: The isolated longitudinal muscle of the guinea pig ileum with its adhering myenteric plexus; from tissue; host or cells: longitudinal muscle strips of ileum with myenteric plexus, male guinea pigs
T1 sequence (O70212 20-490): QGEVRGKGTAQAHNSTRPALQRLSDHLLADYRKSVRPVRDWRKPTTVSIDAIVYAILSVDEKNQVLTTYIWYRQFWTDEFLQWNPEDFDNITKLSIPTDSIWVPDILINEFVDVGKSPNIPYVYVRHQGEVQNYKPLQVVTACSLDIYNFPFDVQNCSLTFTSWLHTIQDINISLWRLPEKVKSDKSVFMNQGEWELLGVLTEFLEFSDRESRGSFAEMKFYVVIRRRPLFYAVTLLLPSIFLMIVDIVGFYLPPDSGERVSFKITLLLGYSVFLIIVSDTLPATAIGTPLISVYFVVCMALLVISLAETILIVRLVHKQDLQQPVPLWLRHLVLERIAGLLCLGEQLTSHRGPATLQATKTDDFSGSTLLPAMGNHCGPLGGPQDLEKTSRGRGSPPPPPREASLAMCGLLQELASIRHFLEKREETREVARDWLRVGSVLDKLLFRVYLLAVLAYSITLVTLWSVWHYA
Method: Male guinea pigs (200-400 g) were killed by a blow on the head and exsanguineated. A length of small intestine was removed about 2 cm from the ileo-caecal valve. The mesentery was carefully removed and the ileum was stretched over a glass rod. By stroking tangentially away from the mesenteric attachement with a wad of cotton wool, the longitudinal muscle layer was separated and stripped from the unterlying circular muscle. Longitudinal muscle strips, 3-4 cm length, were mounted in a 10 ml organ bath containing Tyrode solution at 37° C. and bubbled with 5% carbon dioxide in oxygen. […] The strips were placed under a resting tension of 500 mg. Contractions were recorded with an isotonic pendulum lever. After equilibration for 30 min a set concentration of carbachol was applied in 10 min intervals until a consistent reaction was achieved.
Production of the concentration/reaction curve
Non-cumulative concentration-response curves for 5-HT were established by adding increasing concentrations of the agonist to the organ bath at intervals of at least 15 min. […] Each concentration was left in contact with the tissue for 1 min. […] The contractions expressed as percentage of the maximal response to 5-HT obtained from several preparations were plotted as mean values in order to obtain log-concentration-response curves.

dopamine binding sites [6] = assay: Binding to dopamine sites with tritiated haloperidol
Method: Several drugs e.g. metoclopramide are known for the treatment of gastrointestinal disorders (gut motility disorders). Action has been ascribed to opiates (e.g. loperamide), dopaminergic compounds (e.g. metoclopramide) although for most drugs the mode of the action is not well understood (see J. R. Malegeleda Scand. J. Gastroenterology, 19, Suppl. 96, 1984, pp. 115-121).
The compounds of the invention have insignificant action on dopamine binding sites, e.g. having an IC50 of […] or more using tritriated haloperidol.

[7] = test system: muscle strips from different parts of the guinea pig stomach; assay: Test A: field stimulation-induced contractions in guinea pig stomach muscle strips; design: species or system guinea pig (male Dunkin-Hartley)
Source text: The compounds of the invention facilitate field stimulation-induced contractions in muscle strips from different parts of the guinea pig stomach and are therefore indicated to increase decreased peristalic movements in the stomach and to enhance gastric emptying in vivo. The test is effected as follows:
Male Dunkin-Hartley guinea pigs, 340-450 g, which had been starved overnight, were killed by cervical transsection and the stomach removed and placed in Krebs-Henseleit solution (NaCl 118.0, KCl 4.75, KH2 PO4 1.2, MgSO4 1.2, CaCl2 2.5, glucose 10 mM). Segments were taken from the body (approximately 20 mm long, 3-4 mm wide) with dissection in a plane suitable to investigate tension changes in the circular muscle layer. Tissues were placed in 30 ml organ baths containing oxygenated (95% O2, 5% CO2) Krebs-Henseleit solution at 37° C. One gram tension was applied to the tissues which were allowed to equilibrate for 45-60 min. before electrical stimulation. […] Responses were measured as changes in gram tension, but to allow easier comparison between treatments, data was converted to show changes as percentage values. The significance of differences between control responses and those obtained in the presence of interacting drugs was assessed using the Mann-Whitney U test.

[8] = test system: conscious guinea pigs having stomachs made atonic; assay: Test B: gastric emptying in conscious guinea pigs (X-ray of spheroids); assay type: in vivo, guinea pig; conditions: versus metoclopramide
Method: The compounds of the invention also induce gastric emptying as indicated in standard in vivo tests, e.g. in conscious guinea pigs having stomachs made atonic (i.e. having decreased peristaltic movements) by fasting and wherein the passage of glass spheroids was observed by X-ray techniques. The experiments is effected as follows:
Food was withdrawn for 14 hours before the measurement of gastric emptying. The experiment was conducted under low illumination with minimal noise and disturbance, and was carried out only by those experimentors who had daily contact with the guinea pigs and who carried out the initial training to accustom the guinea pigs to handling. Therefore, animals were subject to minimal stress. […] Gastric emptying was measured as the number of spheroids leaving the stomach.
Six guinea pigs were used at each dose level of drug and responses compared to those of guinea pigs receiving the appropriate vehicle. The significance of differences between drug and control responses was assessed using the Mann Whitney U test.

[9] = test system: chloera toxin-induced secretory diarrhea; design: species or system mouse (male NMRI); conditions: mouse, in vivo
[10] = test system: 5-HT3 receptors in the guinea pig ileum; conditions: counteracting 5-HT induced spasms; cited from earlier work
rabbit vagus = conditions: in words; cited from earlier work
rabbit heart = conditions: in words; cited from earlier work
5-HT reflex = conditions: in words; comparison drug; cited from earlier work

Structure (SMILES): CN1[C@@H]2CCC[C@H]1C[C@@H](OC(=O)c1cn(C)c3ccc(F)cc13)C2 [hydrogen maleate of compound G]
- solubility and stability properties of salt form [1]: especially advantageous properties, e.g. from the solubility and stability point of view

Structure (SMILES): CCN(CC)CCNC(=O)c1cc(Cl)c(N)cc1OC [metoclopramide]
- IC50 (dopamine binding sites [2]): ~170 nM
- dopamine action (dopamine): dopamine agonist action

Structure (SMILES): CN1[C@@H]2CCC[C@H]1C[C@@H](OC(=O)c1csc3ccccc13)C2 [Compound F, Benzo[b]thiophen-3-yl carboxylic acid endo-9-methyl-aza-bicyclo[3,3,1]non-3-yl ester]
- ED50 [3]: 0.025 mg/kg
- pD'2 [4]: 5.9
- Kb [5]: 0.398 nM

Structure (SMILES): CNc1cc(OC)c(C(=O)NC2CN3CCC2CC3)cc1Cl (centres unmarked) [Example 71]
- IC50 (dopamine binding sites [6]): > 10000 nM

Structure (SMILES): CN1[C@@H]2CCC[C@H]1C[C@@H](OC(=O)c1csc3ccccc13)C2 [hydrochloride of compound F]
- solubility and stability properties of salt form [1]: especially advantageous properties, e.g. from the solubility and stability point of view

Structure (SMILES): CN1[C@@H]2CCC[C@H]1C[C@@H](OC(=O)c1cn(C)c3ccc(F)cc13)C2 [Compound G, 5-fluoro-1-methyl-indol-3-yl carboxylic acid endo-9-methyl-9-aza-bicyclo[3,3,1]non-3-yl ester]
- ED50 [3]: 0.002 mg/kg

Structure (SMILES): CN1[C@@H]2CC[C@H]1C[C@@H](OC(=O)c1c[nH]c3ccccc13)C2 [Compound E, Indol-3-yl carboxylic acid endo-8-methyl-8-aza-bicyclo-[3,2,1]oct-3-yl ester]
- EC (maximal response) ([7]; Cavia porcellus, field stimulation of stomach strips, read-out: concentration producing maximal response): 0.01 µM
- times more active than metoclopramide (contraction) ([7]; versus metoclopramide): 100 times
- times more active than metoclopramide (gastric emptying) [8]: about 50 times
- ED50 [3]: 0.07 mg/kg
- effect of increased dose on stomach contents [9]: did not lead to a reduction in the stomach contents
- pD'2 [4]: 5.7
- Kb [5]: 12.6 nM
- action at 5-HT3 receptors in guinea pig ileum [10]: competitive antagonist of the 5-HT3 receptors in the guinea pig ileum
- action against 5-HT on rabbit vagus (rabbit vagus): antagonistic action against 5-HT
- action against 5-HT on rabbit heart (rabbit heart): antagonistic action against 5-HT

Structure (SMILES): CN1[C@@H]2CC[C@H]1C[C@@H](OC(=O)C(CO)c1ccccc1)C2 (some centres unmarked) [atropine]
- effect on the whole reflex (5-HT reflex): paralyse the whole reflex
